Laboratory results: the supplement of paper PMC10307832

Tests used:
Test in all cases: relative viability (nuclei count vs DMSO), 5 days (fraction); higher = more cells survive
NCI-H650 = test system: NCI-H650
Summary of the method: (§1)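 Lung cancer cell lines were seeded in 1536-well plates and dosed by pin tool the next day, with either a single drug or a fixed anchor-drug dose combined with five library-drug doses (not always all listed) spaced in √10 steps. Five days later, one step fixed the cells and stained their nuclei (final 0.05% Triton X-100, 1% formaldehyde, 1 ug/ml Hoechst), and nuclei were counted on 4× images. Relative viability is the nuclei count in treated wells divided by the count in vehicle wells, and each value is the median of duplicate plates.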

NCI-H2126 = test system: NCI-H2126
Summary of the method: as §1

NCI-H2023 = test system: NCI-H2023
Summary of the method: as §1

HOP-62 = test system: HOP-62
Summary of the method: as §1

EMC-BAC-2 = test system: EMC-BAC-2
Summary of the method: as §1

LC-2-ad = test system: LC-2-ad
Summary of the method: as §1

NCI-H1395 = test system: NCI-H1395
Summary of the method: as §1

NCI-H727 = test system: NCI-H727
Summary of the method: as §1

HCC-15 = test system: HCC-15
Summary of the method: as §1

SW 900 = test system: SW 900
Summary of the method: as §1

NCI-H1437 = test system: NCI-H1437
Summary of the method: as §1

## Cc1cn(-c2cc(NC(=O)c3ccc(C)c(Nc4nccc(-c5cccnc5)n4)c3)cc(C(F)(F)F)c2)cn1 [Nilotinib] + Cc1cc(Nc2cc(N3CCN(C)CC3)nc(Sc3ccc(NC(=O)C4CC4)cc3)n2)n[nH]1 [Tozasertib] (partner 0.1 µM)
NCI-H650; first compound 0.001 µM
  relative viability: 0.665
NCI-H650; first compound 0.003162 µM
  relative viability: 0.67
NCI-H650; first compound 0.01 µM
  relative viability: 0.725
NCI-H650; first compound 0.03162 µM
  relative viability: 0.672
NCI-H650; first compound 0.1 µM
  relative viability: 0.68
NCI-H2126; first compound 0.001 µM
  relative viability: 0.786
NCI-H2126; first compound 0.003162 µM
  relative viability: 0.857
NCI-H2126; first compound 0.01 µM
  relative viability: 0.963
NCI-H2126; first compound 0.03162 µM
  relative viability: 0.599
NCI-H2126; first compound 0.1 µM
  relative viability: 0.438
NCI-H2023; first compound 0.001 µM
  relative viability: 0.192
NCI-H2023; first compound 0.003162 µM
  relative viability: 0.225
NCI-H2023; first compound 0.01 µM
  relative viability: 0.224
NCI-H2023; first compound 0.03162 µM
  relative viability: 0.159
NCI-H2023; first compound 0.1 µM
  relative viability: 0.183
HOP-62; first compound 0.001 µM
  relative viability: 0.288
HOP-62; first compound 0.01 µM
  relative viability: 0.289
EMC-BAC-2; first compound 0.001 µM
  relative viability: 0.259
EMC-BAC-2; first compound 0.003162 µM
  relative viability: 0.258
EMC-BAC-2; first compound 0.01 µM
  relative viability: 0.244
EMC-BAC-2; first compound 0.03162 µM
  relative viability: 0.269
LC-2-ad; first compound 0.001 µM
  relative viability: 0.371
LC-2-ad; first compound 0.003162 µM
  relative viability: 0.337
LC-2-ad; first compound 0.01 µM
  relative viability: 0.382
LC-2-ad; first compound 0.03162 µM
  relative viability: 0.384
LC-2-ad; first compound 0.1 µM
  relative viability: 0.403
NCI-H1395; first compound 0.001 µM
  relative viability: 0.691
NCI-H1395; first compound 0.003162 µM
  relative viability: 0.674
NCI-H1395; first compound 0.01 µM
  relative viability: 0.751
NCI-H1395; first compound 0.03162 µM
  relative viability: 0.612
NCI-H1395; first compound 0.1 µM
  relative viability: 0.736
NCI-H727; first compound 0.001 µM
  relative viability: 0.599
NCI-H727; first compound 0.003162 µM
  relative viability: 0.624
NCI-H727; first compound 0.01 µM
  relative viability: 0.503
NCI-H727; first compound 0.03162 µM
  relative viability: 0.437
NCI-H727; first compound 0.1 µM
  relative viability: 0.599
HCC-15; first compound 0.001 µM
  relative viability: 0.236
HCC-15; first compound 0.003162 µM
  relative viability: 0.312
HCC-15; first compound 0.01 µM
  relative viability: 0.217
HCC-15; first compound 0.03162 µM
  relative viability: 0.165
HCC-15; first compound 0.1 µM
  relative viability: 0.136
SW 900; first compound 0.001 µM
  relative viability: 0.324
SW 900; first compound 0.003162 µM
  relative viability: 0.51
SW 900; first compound 0.01 µM
  relative viability: 0.389
SW 900; first compound 0.03162 µM
  relative viability: 0.34
SW 900; first compound 0.1 µM
  relative viability: 0.262
NCI-H1437; first compound 0.001 µM
  relative viability: 0.355
NCI-H1437; first compound 0.003162 µM
  relative viability: 0.499
NCI-H1437; first compound 0.01 µM
  relative viability: 0.4
NCI-H1437; first compound 0.03162 µM
  relative viability: 0.304
NCI-H1437; first compound 0.1 µM
  relative viability: 0.317
